Experimental data published in the supplement of paper PMC12613149.

Tests used:
[1] = collision cross section (TIMS, N2 drift gas) of the primary ion; higher = larger gas-phase ion size
[2] = reversed-phase LC retention time (C18, 15 min MeOH gradient); higher = more hydrophobic / later elution
[3] = ionization mode: ESI-, ion species: [M-H]-
[4] = ionization mode: ESI+, ion species: [M+H]+
[5] = ionization mode: ESI+, ion species: [M]+

collision cross section [1, 3]	reversed-phase LC retention time [2, 3]	collision cross section [1, 4]	reversed-phase LC retention time [2, 4]	collision cross section [1, 5]	reversed-phase LC retention time [2, 5]	Structure (SMILES)
162.14 Å²	8.92 min	–	–	–	–	Cc1cccc(C)c1N(Cn1cccn1)C(=O)C(=O)O [Metazachlor OA]
–	–	156.95 Å²	11.1 min	–	–	Cc1cccc(C)c1N(Cn1cccn1)C(=O)CO [Metazachlor-2-hydroxy]
–	–	138.02 Å²	8.4 min	–	–	Cc1cc(O)cc(C)c1S(C)=O (centres undefined) [Methiocarb-sulfoxide phenol]
–	–	197.21 Å²	7.82 min	–	–	CN(Cc1cnc2nc(N)nc(N)c2n1)c1ccc(C(=O)N[C@@H](CCC(=O)O)C(=O)O)cc1 [Methotrexate]
179.88 Å²	17.3 min	–	–	–	–	COC(=O)CCc1cc(C(C)(C)C)c(O)c(C(C)(C)C)c1 [Methyl 3-(3,5-di-tert-butyl-4-hydroxyphenyl)propionate]
173.48 Å²	12 min	170.74 Å²	12.1 min	–	–	CCc1cccc(C)c1N(C(=O)CS(=O)(=O)O)C(C)COC (centres undefined) [Metolachlor ESA]
165.62 Å²	11.9 min	160 Å²	12.7 min	–	–	CCc1cccc(C)c1N(C(=O)C(=O)O)C(C)COC (centres undefined) [Metolachlor OA]
–	–	166.24 Å²	7.62 min	–	–	CC(C)NCC(O)COc1ccc(CC(=O)O)cc1 (centres undefined) [Metoprolol acid]
–	–	191.81 Å²	15.6 min	–	–	Clc1ccc(COC(Cn2ccnc2)c2ccc(Cl)cc2Cl)c(Cl)c1 (centres undefined) [Miconazole]
–	–	160.18 Å²	9.54 min	–	–	CN1CCN2c3ncccc3Cc3ccccc3C2C1 (centres undefined) [Mirtazapine]
214.51 Å²	15.7 min	217.59 Å²	15.2 min	–	–	C[C@@H]1C[C@H]2[C@@H]3CCC4=CC(=O)C=C[C@]4(C)[C@@]3(Cl)[C@@H](O)C[C@]2(C)[C@@]1(OC(=O)c1ccco1)C(=O)CCl [Mometasone fuorate]
151.15 Å²	10.2 min	–	–	–	–	CC(C)COC(=O)c1ccccc1C(=O)O [Mono-iso-butyl-phthalate]
159.96 Å²	10.7 min	155.89 Å²	17.1 min	–	–	O=C(O)c1ccccc1C(=O)OCc1ccccc1 [Monobenzyl phthalate]
244.69 Å²	17 min	243.08 Å²	17.7 min	–	–	CC(C)(O)c1ccccc1CCC(SCC1(CC(=O)O)CC1)c1cccc(C=Cc2ccc3ccc(Cl)cc3n2)c1 (centres undefined) [Montelukast]
175.76 Å²	11.3 min	169.04 Å²	13.4 min	–	–	COc1c(C)c2c(c(O)c1C/C=C(\C)CCC(=O)O)C(=O)OC2 [Mycophenolic acid]
–	–	154.74 Å²	7.85 min	–	–	CC(=O)Nc1c(C)n(C)n(-c2ccccc2)c1=O [N-Acetyl-4-aminoantipyrine]
148.3 Å²	12.8 min	–	–	–	–	CCCCNS(=O)(=O)c1ccccc1 [N-Butylbenzenesulfonamide]
157 Å²	15.9 min	155.21 Å²	14.1 min	–	–	c1ccc2sc(NC3CCCCC3)nc2c1 [N-Cyclohexyl-2-benzothiazole-amine]
–	–	135.66 Å²	10.7 min	–	–	CCNC(=O)c1cccc(C)c1 [N-Ethyl-3-methylbenzamide]
143.19 Å²	11.5 min	–	–	–	–	CCNS(=O)(=O)c1ccccc1C [N-Ethyl-o-toluenesulfonamide]
–	–	149.16 Å²	7.74 min	–	–	Cc1c(NC=O)c(=O)n(-c2ccccc2)n1C [N-Formyl-4-aminoantipyrine]
–	–	151.76 Å²	13.8 min	–	–	COc1ccc2cc(C(C)C(=O)O)ccc2c1 (centres undefined) [Naproxen]
–	–	135.54 Å²	2.26 min	–	–	CN1CCCC1c1cccnc1 (centres undefined) [Nicotine]
183.62 Å²	14.7 min	184.47 Å²	14.4 min	–	–	CCOC(=O)C1=C(C)NC(C)=C(C(=O)OC)C1c1cccc([N+](=O)[O-])c1 (centres undefined) [Nitrendipin]
149.37 Å²	6.35 min	–	–	–	–	O=C1CN(/N=C/c2ccc([N+](=O)[O-])o2)C(=O)N1 [Nitrofurantoin]
–	–	177.62 Å²	13.9 min	–	–	C#C[C@]1(O)CC[C@H]2[C@@H]3CCC4=CC(=O)CC[C@@H]4[C@H]3CC[C@@]21C [Norethindrone]
–	–	173.95 Å²	8.08 min	–	–	CCn1cc(C(=O)O)c(=O)c2cc(F)c(N3CCNCC3)cc21 [Norfloxacin]
–	–	200.98 Å²	16.3 min	–	–	C#C[C@]1(OC(C)=O)CC[C@H]2[C@@H]3CCC4=C/C(=N/O)CC[C@@H]4[C@H]3CC[C@@]21CC [Norgestimate]

Continued, compound first:

Structure (SMILES)	collision cross section [1, 3]	reversed-phase LC retention time [2, 3]	collision cross section [1, 4]	reversed-phase LC retention time [2, 4]	collision cross section [1, 5]	reversed-phase LC retention time [2, 5]
Cc1cccc(C)c1N(Cn1cccn1)C(=O)CCl [Metazachlor]	–	–	159.2 Å²	12.9 min	–	–
CC1(C)CCC(Cc2ccc(Cl)cc2)C1(O)Cn1cncn1 (centres undefined) [Metconazole]	–	–	170.17 Å²	15.8 min	–	–
CNC(=O)Oc1cc(C)c(S(C)(=O)=O)c(C)c1 [Methiocarb sulfone]	–	–	162.89 Å²	9.59 min	–	–
Cn1sc(Cl)cc1=O [Methylchloroisothiazolinone]	–	–	120.77 Å²	7.46 min	–	–
Cn1ncc(N)c(Cl)c1=O [Methyldesphenylchloridazon]	–	–	123.51 Å²	5.06 min	–	–
C[P+](c1ccccc1)(c1ccccc1)c1ccccc1 [Methyltriphenylphosphonium]	–	–	–	–	162.96 Å²	10.1 min
CON(C)C(=O)Nc1ccc(Br)cc1 [Metobromuron]	–	–	148.37 Å²	12.6 min	–	–
CCc1cccc(C)c1N(C(=O)CCl)C(C)COC (centres undefined) [Metolachlor]	–	–	160.17 Å²	15.1 min	–	–
COCCc1ccc(OCC(O)CNC(C)C)cc1 (centres undefined) [Metoprolol]	–	–	171.87 Å²	9.39 min	–	–
COc1cc(C)c(C(=O)c2c(OC)ccc(Br)c2C)c(OC)c1OC [Metrafenone]	–	–	184.27 Å²	15.9 min	–	–
CSc1nnc(C(C)(C)C)c(=O)n1N [Metribuzin]	–	–	147.77 Å²	11.4 min	–	–
Cc1ncc([N+](=O)[O-])n1CCO [Metronidazole]	–	–	132.43 Å²	5.53 min	–	–
CN(C)c1ccc(C(=O)c2ccc(N(C)C)cc2)cc1 [Michler's ketone]	–	–	166.78 Å²	14.9 min	–	–
CCC1(C2OC(C3OC(O)(CO)C(C)CC3C)CC2C)CCC(C2(C)CCC3(CC(O)C(C)C(C(C)C(OC)C(C)C(=O)O)O3)O2)O1 (centres undefined) [Monensin]	244.26 Å²	17.5 min	–	–	–	–
CCCCC(C#N)(Cn1cncn1)c1ccc(Cl)cc1 (centres undefined) [Myclobutanil]	–	–	175 Å²	14.5 min	–	–
CC(C)(C)CC(C)(C)c1ccc(Nc2ccc(C(C)(C)CC(C)(C)C)cc2)cc1 [N,N-Bis(4-tert-octylphenyl)amine]	–	–	220.04 Å²	20.2 min	–	–
CCCCN(C=O)CCCC [N,N-Di-n-butylformamide]	–	–	141.17 Å²	13.5 min	–	–

Structure (SMILES)	collision cross section [1, 3]	reversed-phase LC retention time [2, 3]	collision cross section [1, 4]	reversed-phase LC retention time [2, 4]	collision cross section [1, 5]	reversed-phase LC retention time [2, 5]
CCCCCCCCCC(=O)N(C)C [N,N-Dimethyldecan-1-amide]	–	–	159.08 Å²	16.1 min	–	–
CCCCCCCCCCN(C)C [N,N-Dimethyldecylamine]	–	–	158.65 Å²	13.7 min	–	–
CCCCCCCCCCCC[N+](C)(C)[O-] [N,N-Dimethyldodecylamine N-oxide]	–	–	175.77 Å²	15.6 min	–	–
CCCCCCCCCCCCN(C)C [N,N-Dimethyldodecylamine]	–	–	169.68 Å²	15.4 min	–	–
CCCCCCCCCCCCCC[N+](C)(C)[O-] [N,N-Dimethyltetradecylamine-N-oxide]	–	–	184.89 Å²	16.8 min	–	–
CCCCCCCCCCCCCCN(C)C [N,N-Dimethyltetradecylamine]	–	–	179.2 Å²	16.6 min	–	–
C=C(C)C(=O)NCCCN(C)C [N-(3-Dimethylamino)propyl)methacrylamide]	–	–	136.2 Å²	3.22 min	–	–
CCCCCCCCCCCC(=O)NCCO [N-Lauroylethanolamine]	–	–	175.51 Å²	16.4 min	–	–
CN(C1CCCCC1)C1CCCCC1 [N-Methyl-dicyclohexylamine]	–	–	148.45 Å²	9.45 min	–	–
CNS(=O)(=O)c1ccccc1 [N-Methylbenzenesulfonamide]	134.48 Å²	8.4 min	–	–	–	–
CCCCCCCCCCCCNC [N-Methyldodecylamine]	–	–	167.22 Å²	15.5 min	–	–
c1ccc(Nc2cccc3ccccc23)cc1 [N-Phenyl-1-naphthylamine]	–	–	153.28 Å²	16.1 min	–	–
CC(C)Nc1ccc(Nc2ccccc2)cc1 [N-isopropyl-N-phenyl-p-phenylenediamine]	–	–	171.67 Å²	8.47 min	–	–
CCN(CC)C(=O)C(C)Oc1cccc2ccccc12 (centres undefined) [Napropamide]	–	–	164.64 Å²	14.9 min	–	–
COc1cc(OC)nc(NC(=O)NS(=O)(=O)c2ncccc2C(=O)N(C)C)n1 [Nicosulfuron]	194.5 Å²	8.07 min	193.46 Å²	11.4 min	–	–
CC(C)CC(C)CC(C)c1ccc(O)cc1 (stereo not drawn) [Nonylphenol_isomers]	161.38 Å²	17.9 min	–	–	–	–
c1ccc2c(c1)[nH]c1cnccc12 [Norharmane]	129.43 Å²	12.9 min	132.84 Å²	8.24 min	–	–
